Measured values reported in patent US20250353816A1, “QUINOLINES AS MODULATORS OF POLRMT” (Pretzel Therapeutics, Inc., priority 2024, published 2025).

Biological target: POLRMT (Homo sapiens (Human), UniProt O00411)
Assay: homogeneous TR-FRET assay of mitochondrial transcription (inhibition of POLRMT)
Type: biochemical
Conditions: 7.5 nM POLRMT, 15 nM TFB2M, 30 nM TFAM, 60 minutes at 37° C.
Experimental: The inhibitory activity of the compounds of the present invention against POLRMT were determined by assays based on Bergbrede, T., et al., “An adaptable high-throughput technology enabling the identification of specific transcription modulators,” SLAC Discov., 22, 378-386 (2017).
The ability of some compounds of the present invention to inhibit POLRMT were determined in a homogeneous TR-FRET Assay using high-throughput screening in a 384-well plate format. This method is used to monitor the activity of mitochondrial transcription through measurement of its product, a 407 bp long RNA transcript. Detection of the product is facilitated by hybridization of two DNA-oligonucleotide probes to specific and adjacent sequences within the RNA product sequence. Upon annealing of the probes, two fluorophores are coupled directly to an acceptor nucleotide probe (ATTO647, 5′), or introduced via a coupled streptavidin with a biotinylated donor nucleotide probe (Europium cryptate) that is brought into sufficient proximity to serve as a fluorescence-donor-acceptor pair. Thus, a FRET signal at 665 nm is generated upon excitation at 340 nm.
Proteins used as transcription factors (POLRMT: NP_005026.3, TFAM: NP_003192.1, TFB2M: NP_071761.1) are diluted from their stocks to working concentrations of 1 μM, 20 μM and 4 μM respectively, in a dilution buffer containing 20 mM Tris-HCl (pH 8.0), 200 mM NaCl, 10% (v/v) glycerol, 1 mM Dithiothreitol (DTT), 0.5 mM EDTA.
DNA template is a pUC18 plasmid with the mitochondrial light strand promotor sequence (1-477) cloned between HindIII and BamHI sites. The DNA template is restriction linearized proximal to the promotor 3′-end (pUC-LSP).
The reaction mixture (10 uL) containing 7.5 nM POLRMT, 15 nM of TFB2M, 30 nM of TFAM, 0.5 nM of DNA template and 500 μM nucleotide triphosphate mix (NTPs) in a reaction buffer (containing 10 mM Tris-HCl (pH 7.5), 10 mM MgCl2, 40 mM NaCl, 10 mM DTT, 0.005% (w/v) Tween-20, 160 units/ml Rnase inhibitor and 0.1 mg/mL BSA) are dispensed to compounds in microplates, using a Thermo Multidrop® dispenser, and incubated at 37° C. in a VWR INCU-Line incubator for 60 minutes after mixing. No nucleotide triphosphate mix is added to negative control samples. Microplates with compounds to be tested in the assay are prepared from 10 mM compound stocks in 100% DMSO, equal amounts of DMSO without any compound are added to positive control and negative control samples.
During the incubation, a mix of the detection reagents is prepared in a buffer such that the enzymatic reaction is terminated due to chelating of Mg-ions and increased ionic strength, containing 50 mM Tris-HCl (pH 7.5), 700 mM NaCl, 20 mM EDTA, and 0.01% (w/v) Tween-20. Europium-streptavidin is pre-incubated with a 200-fold molar excess of a random sequence oligonucleotide to block unspecific binding of oligo, for two hours at ambient temperature in the dark. Afterwards, the blocked Europium-streptavidin is kept on ice until use.
At the end of the enzymatic reaction time, 5 μL detection oligo mix in the detection buffer is added, and assay plates are mixed and kept at ambient temperature for one hour, protected from light. The concentration of the Acceptor nucleotide oligo (e.g., ATTO647N-5′-[…]-3′ (SEQ ID NO: 1)) and Donor nucleotide oligo (e.g., bio-5′-AACACATCTCT(-bio)GCCAAACCCCA-bio-3′ (SEQ ID NO: 2)) in each assay well is 1 nM, and 3 nM, respectively.
After incubation with oligo mix, 5 μL of pre-blocked Europium-streptavidin reagent is dispensed to each assay well, assay plates are again mixed and kept at ambient temperature for one hour, protected from light.
The generated signal is measured with BMG Pherastar microtiter plate reader with a TRF light unit, using excitation at 340 nm, an integration time of 200 μs, and a delay time of […], before detection at 620 nm and 665 nm. The ratio of donor- and acceptor-fluorescence is used as a measure of the generated transcript product (i.e. enzymatic activity).

Chain of POLRMT (O00411 42-1230): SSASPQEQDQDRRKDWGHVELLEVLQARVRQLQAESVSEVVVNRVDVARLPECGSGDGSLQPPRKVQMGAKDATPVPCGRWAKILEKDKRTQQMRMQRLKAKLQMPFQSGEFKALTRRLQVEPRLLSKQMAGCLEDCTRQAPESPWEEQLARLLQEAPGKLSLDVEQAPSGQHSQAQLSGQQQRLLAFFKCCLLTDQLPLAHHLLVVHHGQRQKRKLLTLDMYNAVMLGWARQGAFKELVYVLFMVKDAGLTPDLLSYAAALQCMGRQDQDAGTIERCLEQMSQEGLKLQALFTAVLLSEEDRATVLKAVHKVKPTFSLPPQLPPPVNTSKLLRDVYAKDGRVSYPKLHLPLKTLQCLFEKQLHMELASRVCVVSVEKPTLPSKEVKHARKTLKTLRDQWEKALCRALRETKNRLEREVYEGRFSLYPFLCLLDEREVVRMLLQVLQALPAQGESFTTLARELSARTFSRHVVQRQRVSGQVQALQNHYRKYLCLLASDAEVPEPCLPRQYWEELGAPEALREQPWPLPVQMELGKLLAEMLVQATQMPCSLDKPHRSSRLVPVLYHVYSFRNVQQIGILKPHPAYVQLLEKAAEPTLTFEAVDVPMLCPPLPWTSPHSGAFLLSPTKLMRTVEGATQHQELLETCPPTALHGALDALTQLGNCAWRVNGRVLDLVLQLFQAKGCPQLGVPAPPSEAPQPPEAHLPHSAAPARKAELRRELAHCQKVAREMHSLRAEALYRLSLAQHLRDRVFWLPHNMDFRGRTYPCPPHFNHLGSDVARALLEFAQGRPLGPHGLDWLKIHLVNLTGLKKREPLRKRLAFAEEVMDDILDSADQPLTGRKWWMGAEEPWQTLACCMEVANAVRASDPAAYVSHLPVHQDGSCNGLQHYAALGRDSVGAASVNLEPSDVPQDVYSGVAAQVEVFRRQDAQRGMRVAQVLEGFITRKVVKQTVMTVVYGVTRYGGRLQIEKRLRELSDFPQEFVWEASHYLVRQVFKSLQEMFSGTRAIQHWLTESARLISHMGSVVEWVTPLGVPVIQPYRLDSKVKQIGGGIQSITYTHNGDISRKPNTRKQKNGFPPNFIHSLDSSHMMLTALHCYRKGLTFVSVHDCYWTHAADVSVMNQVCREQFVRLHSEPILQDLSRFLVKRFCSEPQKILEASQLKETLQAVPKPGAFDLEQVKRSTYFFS

IC50	SMILES
97 µM	Cc1ccccc1-c1ccnc2cc(CC(=O)O)ccc12 [Example 29, 2-(4-(o-tolyl)quinolin-7-yl)acetic acid]
91 µM	Cc1ccccc1-c1ccnc2cc(CC(=O)NC3CC3)ccc12 [Example 30, N-cyclopropyl-2-(4-(o-tolyl)quinolin-7-yl)acetamide]
6 µM	COCCc1ccc2c(-c3ccccc3C)ccnc2c1 [Example 31, 7-(2-methoxyethyl)-4-(o-tolyl)quinoline]
24 µM	Cc1ccccc1-c1ccnc2cc(CN(C)S(C)(=O)=O)ccc12 [Example 32, N-methyl-N-((4-(o-tolyl)quinolin-7-yl)methyl)methanesulfonamide]
74 µM	Cc1ccccc1-c1ccnc2cc(C#N)ccc12 [Example 33, 4-(o-tolyl)quinoline-7-carbonitrile]
> 100 µM	Cc1ccccc1-c1ccnc2cc(CC(=O)N3CCOCC3)ccc12 [Example 36, 1-morpholino-2-(4-(o-tolyl)quinolin-7-yl)ethan-1-one]
> 100 µM	CC(=O)N1CCN(C(=O)Cc2ccc3c(-c4ccccc4C)ccnc3c2)CC1 [Example 40, 1-(4-acetylpiperazin-1-yl)-2-(4-(o-tolyl)quinolin-7-yl)ethan-1-one]
91 µM	Cc1ccccc1-c1ccnc2cc(CC(=O)NCC3CC3)ccc12 [Example 41, N-(cyclopropylmethyl)-2-(4-(o-tolyl)quinolin-7-yl)acetamide]
> 100 µM	Cc1ccccc1-c1ccnc2cc(CC(N)=O)ccc12 [Example 42, 2-(4-(o-tolyl)quinolin-7-yl)acetamide]
> 100 µM	Cc1ccccc1-c1ccnc2cc(CC(=O)N(C)C)ccc12 [Example 43, N,N-dimethyl-2-(4-(o-tolyl)quinolin-7-yl)acetamide]
> 100 µM	CNC(=O)Cc1ccc2c(-c3ccccc3C)ccnc2c1 [Example 44, N-methyl-2-(4-(o-tolyl)quinolin-7-yl)acetamide]
4 µM	Cc1ccccc1-c1ccnc2cc(NC(C)C(=O)N3CCCCC3)ccc12 (stereo not shown) [Example 45, 1-(piperidin-1-yl)-2-((4-(o-tolyl)quinolin-7-yl)amino)propan-1-one]
8 µM	Cc1ccccc1-c1ccnc2cc(NC(C)C(=O)N3CCOCC3)ccc12 (stereo not shown) [Example 46, 1-morpholino-2-((4-(o-tolyl)quinolin-7-yl)amino)propan-1-one]
26 µM	Cc1ccccc1-c1ccnc2cc(NC(C)C(=O)N(C)C)ccc12 (stereo not shown) [Example 47, N,N-dimethyl-2-((4-(o-tolyl)quinolin-7-yl)amino)propanamide]
> 100 µM	Cc1ccccc1-c1ccnc2cc(C(C)OCC(=O)O)ccc12 (stereo not shown) [Example 54, 2-(1-(4-(o-tolyl)quinolin-7-yl)ethoxy)acetic acid]
> 100 µM	Cc1ccccc1-c1ccnc2cc(C(C)OCC(=O)N(C)C)ccc12 (stereo not shown) [Example 55, N,N-dimethyl-2-(1-(4-(o-tolyl)quinolin-7-yl)ethoxy)acetamide]
> 100 µM	Cc1ccccc1-c1ccnc2cc(C(C)OCC(N)=O)ccc12 (stereo not shown) [Example 56, 2-(1-(4-(o-tolyl)quinolin-7-yl)ethoxy)acetamide]
> 100 µM	CNC(=O)COC(C)c1ccc2c(-c3ccccc3C)ccnc2c1 (stereo not shown) [Example 57, N-methyl-2-(1-(4-(o-tolyl)quinolin-7-yl)ethoxy)acetamide]

SMILES	IC50
Cc1ccccc1-c1ccnc2cc(CC(=O)N3CCN(C)CC3)ccc12 [Example 39, 1-(4-methylpiperazin-1-yl)-2-(4-(o-tolyl)quinolin-7-yl)ethan-1-one]	> 100 µM
